Experimental data as given in patent US20140288044A1, “COMPOSITIONS AND THERAPEUTIC USES OF IKK-RELATED KINASE EPSILON AND TANKBINDING KINASE 1 INHIBITORS” (Alzheimer's Institute of America, Inc., priority 2011, published 2014).
Read-outs that look alike come from different tables or passages of the source.

Assays:
[1] = test system: IKKε-mediated phosphorylation of IRF3; assay: ELISA for in-situ phosphorylation of IRF3 (phospho-Ser396) in HEK293T cells cotransfected with IRF3 and IKKε; type: cell-based; settings: Homo sapiens, HEK-293T, 20 h, HEK293T cells, 20 hours, read-out: IC50, in-situ IKKε-mediated phosphorylation of IRF3
How it was run: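 HEK293T cells cotransfected with IRF3 and IKKε were treated with compound for 20 h, and lysates were assayed by ELISA for phospho-Ser396 IRF3, normalized to DMSO. Viability was checked in parallel by CellTiter-Glo. For TBK1, cells cotransfected with IRF7 and TBK1 were treated overnight and probed by Western blot for phospho-Ser477/Ser479 IRF7.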

[2] = molecular target: T1, IKKε (Homo sapiens, UniProt Q14164); assay: In-vitro IKKε kinase assay (radiolabelled ATP, filterplate); type: biochemical
T1 construct: His-tag (in-house Sf9 preparation) or GST-tag (purchased Invitrogen preparation); these are alternatives, not both on one protein; host or cells: Sf9 cells
T1 sequence (Q14164 1-716): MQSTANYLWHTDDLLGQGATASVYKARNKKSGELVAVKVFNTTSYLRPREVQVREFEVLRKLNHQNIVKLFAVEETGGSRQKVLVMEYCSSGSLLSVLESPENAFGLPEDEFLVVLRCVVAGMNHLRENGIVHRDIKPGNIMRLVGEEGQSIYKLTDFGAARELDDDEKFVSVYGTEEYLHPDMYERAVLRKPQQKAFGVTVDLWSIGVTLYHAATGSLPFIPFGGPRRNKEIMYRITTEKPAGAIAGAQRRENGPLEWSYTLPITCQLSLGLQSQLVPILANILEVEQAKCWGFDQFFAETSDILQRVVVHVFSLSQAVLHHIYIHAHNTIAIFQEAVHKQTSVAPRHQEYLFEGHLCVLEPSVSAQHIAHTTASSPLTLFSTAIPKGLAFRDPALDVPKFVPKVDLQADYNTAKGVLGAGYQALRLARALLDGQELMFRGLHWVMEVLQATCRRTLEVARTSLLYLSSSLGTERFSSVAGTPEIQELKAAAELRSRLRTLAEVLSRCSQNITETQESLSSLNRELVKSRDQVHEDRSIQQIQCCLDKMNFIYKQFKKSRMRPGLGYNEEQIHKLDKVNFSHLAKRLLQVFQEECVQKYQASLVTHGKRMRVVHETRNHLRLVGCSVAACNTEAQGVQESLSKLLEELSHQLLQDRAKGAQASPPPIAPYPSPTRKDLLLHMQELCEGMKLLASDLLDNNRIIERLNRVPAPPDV
How it was run: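 His-tagged IKKε from Sf9 cells or GST-tagged IKKε, with myelin basic protein, casein or dephosphorylated casein as substrate and 32 μM ATP (2× Km) plus [γ^33]ATP. "Normal" assay used 0.1 μg/ml enzyme; "sensitized" used 0.015 μg/ml with dephosphorylated casein only. Stopped after 30–45 min with phosphoric acid; P-81 filter counts normalized to DMSO after background subtraction.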

[3] = range given from about 1 μM to about 250 nM
[4] = "sensitized" assay, read-out: IC50, inhibition of the kinase activity of IKKε
[5] = in-vitro IKKε kinase inhibition assays, given as 0.005 μM (5 nM), read-out: IKKε kinase inhibitory activity (IC50 value)

| IC50 [1, 3] [nM] | IC50 [2, 5] [nM] | IC50 [1] [nM] | Structure (SMILES) | IC50 [2, 4] [nM] |
| --- | --- | --- | --- | --- |
| 250 to 1000 | < 5 |  | CCN(CC)c1ccc(Nc2nccc(-c3ccc(NC(=O)C4CC4)c(C#N)c3)n2)cn1 [Example Compound 139, N-[2-Cyano-4-(2-{[6-(diethylamino)pyridin-3-yl]amino}pyrimidin-4-yl)phenyl]cyclopropanecarboxamide] | < 5 |
|  | < 5 | 100 to 250 | CC(C)COc1ccc(-c2ccnc(Nc3ccc(N(C)CCO)nc3)n2)cc1C#N [Example Compound 109, 5-[2-({6-[(2-Hydroxyethyl)(methyl)amino]pyridin-3-yl}amino)pyrimidin-4-yl]-2-(2-methylpropoxy)benzonitrile] | < 5 |
|  |  | < 100 | CN(Cc1ccc(Nc2nccc(-c3ccc(OC4CCOCC4)c(C#N)c3)n2)cn1)C(=O)C(C)(C)O [Example Compound 205, N-{[5-({4-[3-Cyano-4-(tetrahydro-2H-pyran-4-yloxy)phenyl]pyrimidin-2-yl}amino)pyridin-2-yl]methyl}-2-hydroxy-N,2-dimethylpropanamide] | < 5 |
| 250 to 1000 |  |  | CN(CCS(C)(=O)=O)Cc1ccc(Nc2nccc(-c3ccc(OC4CCOCC4)c(C#N)c3)n2)cn1 [Example Compound 207, 5-(2-{[6-({Methyl[2-(methylsulfonyl)ethyl]amino}methyl)pyridin-3-yl]amino}pyrimidin-4-yl)-2-(tetrahydro-2H-pyran-4-yloxy)benzonitrile] | < 5 |
|  | < 5 | < 100 | N#Cc1cc(-c2ccnc(Nc3ccnc(CN4CCC(F)(F)C4)c3)n2)ccc1OC1CCOCC1 [Example Compound 71, 5-[2-({2-[(3,3-Difluoropyrrolidin-1-yl)methyl]pyridin-4-yl}amino)pyrimidin-4-yl]-2-(tetrahydro-2H-pyran-4-yloxy)benzonitrile] |  |
|  | < 5 | < 100 | N#Cc1cc(-c2ccnc(Nc3ccnc(N4CCN(CCO)CC4)c3)n2)ccc1NC(=O)C1CC1 [Example Compound 143, N-{2-Cyano-4-[2-({2-[4-(2-hydroxyethyl)piperazin-1-yl]pyridin-4-yl}amino)pyrimidin-4-yl]phenyl}cyclopropanecarboxamide] | < 5 |
|  |  | 100 to 250 | N#Cc1cc(-c2ccnc(Nc3ccc(CNC(=O)N4CCOCC4)nc3)n2)ccc1OC1CCOCC1 [Example Compound 229, N-{[5-({4-[3-Cyano-4-(tetrahydro-2H-pyran-4-yloxy)phenyl]pyrimidin-2-yl}amino)pyridin-2-yl]methyl}morpholine-4-carboxamide] | < 5 |
|  |  | < 100 | CC(c1ccc(Nc2nccc(-c3ccc(OC4CCOCC4)c(C#N)c3)n2)cn1)N1CC(N(C)C)C1 (centres unmarked) [Example Compound 244, 5-{2-[(6-{1-[3-(Dimethylamino)azetidin-1-yl]ethyl}pyridin-3-yl)amino]pyrimidin-4-yl}-2-(tetrahydro-2H-pyran-4-yloxy)benzonitrile] | < 5 |
|  |  | < 100 | N#Cc1cc(-c2ccnc(Nc3ccnc(CO)c3)n2)ccc1OC1CCOCC1 [Example Compound 227, 5-(2-{[2-(Hydroxymethyl)pyridin-4-yl]amino}pyrimidin-4-yl)-2-(tetrahydro-2H-pyran-4-yloxy)benzonitrile] | < 5 |
|  | < 5 | < 100 | Cn1cc(-c2cc(Nc3nccc(-c4ccc(OC5CCOCC5)c(C#N)c4)n3)ccn2)cn1 [Example Compound 82, 5-(2-{[2-(1-Methyl-1H-pyrazol-4-yl)pyridin-4-yl]amino}pyrimidin-4-yl)-2-(tetrahydro-2H-pyran-4-yloxy)benzonitrile] | < 5 |
|  | < 5 | 100 to 250 | CN(CCS(C)(=O)=O)Cc1ccc(Nc2nccc(-c3ccc(OC4CCOCC4)c(C#N)c3)n2)cn1 [Example Compound 54, 5-(2-{[6-({Methyl[2-(methylsulfonyl)ethyl]amino}methyl)pyridin-3-yl]amino}pyrimidin-4-yl)-2-(tetrahydro-2H-pyran-4-yloxy)benzonitrile] |  |
|  |  | < 100 | COCCNc1cc(Nc2nccc(-c3ccc(OC4CCOCC4)c(C#N)c3)n2)ccn1 [Example Compound 193, 5-[2-({2-[(2-Methoxyethyl)amino]pyridin-4-yl}amino)pyrimidin-4-yl]-2-(tetrahydro-2H-pyran-4-yloxy)benzonitrile] | < 5 |
|  | < 5 | < 100 | N#Cc1cc(-c2ccnc(Nc3ccc(-c4cn[nH]c4)nc3)n2)ccc1OC1CCOCC1 [Example Compound 78, 5-(2-{[6-(1H-Pyrazol-4-yl)pyridin-3-yl]amino}pyrimidin-4-yl)-2-(tetrahydro-2H-pyran-4-yloxy)benzonitrile] |  |
| 250 to 1000 | < 5 |  | N#Cc1cc(-c2ccnc(Nc3ccc(N4CCOCC4)nn3)n2)ccc1OC1CCOCC1 [Example Compound 88, 5-(2-{[6-(Morpholin-4-yl)pyridazin-3-yl]amino}pyrimidin-4-yl)-2-(tetrahydro-2H-pyran-4-yloxy)benzonitrile] | < 5 |
|  | < 5 | < 100 | N#Cc1cc(-c2ccnc(Nc3ccc(C4CC4)nc3)n2)ccc1OC1CCOCC1 [Example Compound 4, 5-{2-[(6-Cyclopropylpyridin-3-yl)amino]pyrimidin-4-yl}-2-(tetrahydro-2H-pyran-4-yloxy)benzonitrile] | < 5 |
|  | < 5 | 100 to 250 | COCCOC1CN(c2cc(Nc3nccc(-c4ccc(OC5CCOCC5)c(C#N)c4)n3)ccn2)C1 [Example Compound 45, 5-[2-({2-[3-(2-Methoxyethoxy)azetidin-1-yl]pyridin-4-yl}amino)pyrimidin-4-yl]-2-(tetrahydro-2H-pyran-4-yloxy)benzonitrile] | < 5 |
| 250 to 1000 | < 5 |  | N#Cc1cc(-c2ccnc(Nc3ccncc3)n2)ccc1OC1CCOCC1 [Example Compound 34, 5-[2-(Pyridin-4-ylamino)pyrimidin-4-yl]-2-(tetrahydro-2H-pyran-4-yloxy)benzonitrile] | < 5 |
| 250 to 1000 | < 5 |  | Cc1cc(Nc2nccc(-c3ccc(O[C@@H]4CCN(C(=O)CO)C4)c(C#N)c3)n2)ccn1 [Example Compound 123, 2-{[(3R)-1-(Hydroxyacetyl)pyrrolidin-3-yl]oxy}-5-{2-[(2-methylpyridin-4-yl)amino]pyrimidin-4-yl}benzonitrile] |  |
|  |  | 100 to 250 | COC(=O)c1cc(Nc2nccc(-c3ccc(OC4CCOCC4)c(C#N)c3)n2)ccn1 [Example Compound 230, Methyl 4-({4-[3-cyano-4-(tetrahydro-2H-pyran-4-yloxy)phenyl]pyrimidin-2-yl}amino)pyridine-2-carboxylate] | < 5 |
| 250 to 1000 |  |  | COCCNc1cc(Nc2nccc(-c3ccc(OC4CCN(C(=O)CO)CC4)c(C#N)c3)n2)ccn1 [Example Compound 238, 2-{[1-(Hydroxyacetyl)piperidin-4-yl]oxy}-5-[2-({2-[(2-methoxyethyl)amino]pyridin-4-yl}amino)pyrimidin-4-yl]benzonitrile] | < 5 |
| 250 to 1000 |  |  | CC(=O)NCc1ccc(Nc2nccc(-c3ccc(OC4CCOCC4)c(C#N)c3)n2)cn1 [Example Compound 228, N-{[5-({4-[3-Cyano-4-(tetrahydro-2H-pyran-4-yloxy)phenyl]pyrimidin-2-yl}amino)pyridin-2-yl]methyl}acetamide] | < 5 |
